Structures can show the parent of a compound that is named as a salt. Some results are limits rather than exact numbers.

By IC50 is commonly meant the concentration at which inhibition is half-maximal.

The target of this assay is T1, human CGT (ceramide galactosyltransferase), CHO/CGT lysate (Homo sapiens, UniProt Q16880).
T1 construct: Full-length human CGT cDNA was cloned into the BamH1/Xho1 site of pcDNA3.1 (+); expressed in transfected cells; host or cells: Chinese hamster ovary (CHO) cells; lysate prepared with M-PER
T1 sequence (Q16880 21-541): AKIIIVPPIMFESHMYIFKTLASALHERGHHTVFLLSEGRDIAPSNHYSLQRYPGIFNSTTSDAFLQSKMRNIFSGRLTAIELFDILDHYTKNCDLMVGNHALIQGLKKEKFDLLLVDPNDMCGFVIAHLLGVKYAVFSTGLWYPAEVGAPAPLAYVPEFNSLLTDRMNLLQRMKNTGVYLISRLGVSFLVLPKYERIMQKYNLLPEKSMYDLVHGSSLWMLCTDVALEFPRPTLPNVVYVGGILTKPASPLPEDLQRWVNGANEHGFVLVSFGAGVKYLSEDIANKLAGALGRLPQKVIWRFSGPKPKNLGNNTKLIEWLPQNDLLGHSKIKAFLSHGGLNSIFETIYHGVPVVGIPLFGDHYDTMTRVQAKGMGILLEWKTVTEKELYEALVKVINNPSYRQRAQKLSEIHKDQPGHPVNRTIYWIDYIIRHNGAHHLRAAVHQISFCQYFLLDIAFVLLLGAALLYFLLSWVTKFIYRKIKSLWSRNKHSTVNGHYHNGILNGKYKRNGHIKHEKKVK
The assay is described as follows: CGT enzyme assay, RapidFire/MS/MS readout with 0.01% Tween added (Table 1 ranges with two asterisks **). The class given is biochemical. To be noted: CGT enzymatic assay; range with two asterisks (**): RapidFire/MS/MS method with 0.01% Tween added. Summed up:
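Lysate (4 μg) of CHO cells transfected with full-length human CGT incubated 1 h at 37 °C with compound (0.001–50 μM) in pH 7.2 HEPES buffer with 10 μM C6-NBD-dihydro-ceramide, 17.5 μM UDP-galactose, Mg2+/Mn2+, CHAPS, BSA, 0.5% DMSO; ** set also contained 0.01% Tween 80. Product quantified by RapidFire/MS/MS, normalized to internal standard; IC50 from sigmoidal variable-slope fits.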
Consider `NC1CCN(C(=O)[C@H](NS(=O)(=O)c2ccc3cc(OC4CCCC4)ccc3c2)C(F)(F)c2ccc(Cl)c(OC3CCCC3)c2)CC1` [Compound 170-2, (S)—N-(3-(4-aminopiperidin-1-yl)-1-(4-chloro-3-(cyclopentyloxy)phenyl)-1,1-difluoro-3-oxopropan-2-yl)-6-(cyclopentyloxy) naphthalene-2-sulfonamide trifluoroacetate], for which the IC50 is 10 to 30 µM.

As for `N[C@H]1CCN(C(=O)[C@@H](NS(=O)(=O)c2ccc(OCC3CCCCC3)cc2)C(F)(F)c2ccc(-c3ccc(Cl)cc3)cc2)C1` [Compound 171-1, N—((R)-3-((S)-3-aminopyrrolidin-1-yl)-1-(4′-chloro-[1,1′-biphenyl]-4-yl)-1,1-difluoro-3-oxopropan-2-yl)-4-(cyclohexylmethoxy)benzenesulfonamide trifluoroacetate], the 50% inhibitory concentration (IC50) fell in the range of 1 to 10 µM.

`N[C@H]1CCN(C(=O)[C@H](NS(=O)(=O)c2ccc(OCC3CCCCC3)cc2)C(F)(F)c2ccc(-c3ccc(Cl)cc3)cc2)C1` [Compound 171-2, N—((S)-3-((S)-3-aminopyrrolidin-1-yl)-1-(4′-chloro-[1,1′-biphenyl]-4-yl)-1,1-difluoro-3-oxopropan-2-yl)-4-(cyclohexylmethoxy) benzenesulfonamide trifluoroacetate] registered an IC50 of 30 to 100 µM.

In the case of `CC(C)Oc1cc(C(F)(F)[C@H](NS(=O)(=O)c2ccc3cc(OC4CCCC4)ccc3c2)C(=O)N2CCC(N)CC2)ccc1Cl` [Compound 172-1, (R)—N-(3-(4-aminopiperidin-1-yl)-1-(4-chloro-3-isopropoxyphenyl)-1,1-difluoro-3-oxopropan-2-yl)-6-(cyclopentyloxy)naphthalene-2-sulfonamide trifluoroacetate], the 50% inhibitory concentration (IC50) is 1 to 10 µM.

The compound `CC(C)Oc1cc(C(F)(F)[C@@H](NS(=O)(=O)c2ccc3cc(OC4CCCC4)ccc3c2)C(=O)N2CCC(N)CC2)ccc1Cl` [Compound 172-2, (S)—N-(3-(4-aminopiperidin-1-yl)-1-(4-chloro-3-isopropoxyphenyl)-1,1-difluoro-3-oxopropan-2-yl)-6-(cyclopentyloxy) naphthalene-2-sulfonamide trifluoroacetate] showed an IC50 of 10 to 30 µM.

For `NC(=O)C1CCN(C(=O)[C@@H](NS(=O)(=O)c2ccc3cc(OC4CCCC4)ccc3c2)C(F)(F)c2ccc(-c3ccc(Cl)cc3)cc2)CC1` [Compound 173-1, (R)-1-(3-(4′-chloro-[1,1′-biphenyl]-4-yl)-2-((6-(cyclopentyloxy)naphthalene)-2-sulfonamido)-3,3-difluoropropanoyl)piperidine-4-carboxamide], the IC50 fell in the range of 1 to 10 µM.

`NC(=O)C1CCN(C(=O)[C@H](NS(=O)(=O)c2ccc3cc(OC4CCCC4)ccc3c2)C(F)(F)c2ccc(-c3ccc(Cl)cc3)cc2)CC1` [Compound 173-2, (S)-1-(3-(4′-chloro-[1,1′-biphenyl]-4-yl)-2-((6-(cyclopentyloxy)naphthalene)-2-sulfonamido)-3,3-difluoropropanoyl)piperidine-4-carboxamide]: the IC50 is 30 to 100 µM.

`NC(=NO)C1CCN(C(=O)[C@@H](NS(=O)(=O)c2ccc3cc(OC4CCCC4)ccc3c2)C(F)(F)c2ccc(-c3ccc(Cl)cc3)cc2)CC1` [Compound 174-1, (R)-1-(3-(4′-chloro-[1,1′-biphenyl]-4-yl)-2-((6-(cyclopentyloxy)naphthalene)-2-sulfonamido)-3,3-difluoropropanoyl)-N′-hydroxypiperidine-4-carboximidamide]: the IC50 lay in the range of 1 to 10 µM.

`NC(=NO)C1CCN(C(=O)[C@H](NS(=O)(=O)c2ccc3cc(OC4CCCC4)ccc3c2)C(F)(F)c2ccc(-c3ccc(Cl)cc3)cc2)CC1` [Compound 174-2, (S)-1-(3-(4′-chloro-[1,1′-biphenyl]-4-yl)-2-((6-(cyclopentyloxy)naphthalene)-2-sulfonamido)-3,3-difluoropropanoyl)-N′-hydroxypiperidine-4-carboximidamide] registered an IC50 of 30 to 100 µM.

For the compound `NC1CCN(C(=O)[C@@H](NC(=O)C(=O)c2cc3ccc(OC4CCCC4)cc3s2)C(F)(F)c2ccc(-c3ccc(Cl)cc3)cc2)CC1` [Compound 175-1, (R)—N-(3-(4-aminopiperidin-1-yl)-1-(4′-chloro-[1,1′-biphenyl]-4-yl)-1,1-difluoro-3-oxopropan-2-yl)-2-(6-(cyclopentyloxy)benzo[b]thiophen-2-yl)-2-oxoacetamide trifluoroacetate], the IC50 lay in the range of 10 to 30 µM.

`NC1CCN(C(=O)[C@H](NC(=O)C(=O)c2cc3ccc(OC4CCCC4)cc3s2)C(F)(F)c2ccc(-c3ccc(Cl)cc3)cc2)CC1` [Compound 175-2, (S)—N-(3-(4-aminopiperidin-1-yl)-1-(4′-chloro-[1,1′-biphenyl]-4-yl)-1,1-difluoro-3-oxopropan-2-yl)-2-(6-(cyclopentyloxy)benzo[b]thiophen-2-yl)-2-oxoacetamide trifluoroacetate]: the IC50 was in the range of 30 to 100 µM.

On to `O=C([C@@H](NS(=O)(=O)c1ccc2cc(OC3CCCC3)ccc2c1)C(F)(F)c1ccc(-c2ccc(Cl)cc2)cc1)N1Cc2cn[nH]c2C1` [Compound 176-1, (R)—N-(1-(4′-chloro-[1,1′-biphenyl]-4-yl)-3-(4,6-dihydropyrrolo[3,4-c]pyrazol-5(1H)-yl)-1,1-difluoro-3-oxopropan-2-yl)-6-(cyclopentyloxy)naphthalene-2-sulfonamide], for which the IC50 is below 1 µM.

For the compound `O=C([C@H](NS(=O)(=O)c1ccc2cc(OC3CCCC3)ccc2c1)C(F)(F)c1ccc(-c2ccc(Cl)cc2)cc1)N1Cc2cn[nH]c2C1` [Compound 176-2, (S)—N-(1-(4′-chloro-[1,1′-biphenyl]-4-yl)-3-(4,6-dihydropyrrolo[3,4-c]pyrazol-5(1H)-yl)-1,1-difluoro-3-oxopropan-2-yl)-6-(cyclopentyloxy)naphthalene-2-sulfonamide], the 50% inhibitory concentration (IC50) fell in the range of 30 to 100 µM.

The compound `NC1CC2CCC(C1)N2C(=O)[C@@H](NS(=O)(=O)c1ccc2cc(OC3CC3)ccc2c1)C(F)(F)c1ccc(Br)cc1` (stereo partly drawn) [Compound 177-1, N-((2R)-3-(3-amino-8-azabicyclo[3.2.1]octan-8-yl)-1-(4-bromophenyl)-1,1-difluoro-3-oxopropan-2-yl)-6-cyclopropoxynaphthalene-2-sulfonamide trifluoroacetate] had an IC50 of 1 to 10 µM.

In the case of `NC1CC2CCC(C1)N2C(=O)[C@H](NS(=O)(=O)c1ccc2cc(OC3CC3)ccc2c1)C(F)(F)c1ccc(Br)cc1` (stereo partly drawn) [Compound 177-2, N-((2S)-3-(3-amino-8-azabicyclo[3.2.1]octan-8-yl)-1-(4-bromophenyl)-1,1-difluoro-3-oxopropan-2-yl)-6-cyclopropoxynaphthalene-2-sulfonamide trifluoroacetate], the IC50 was 10 to 30 µM.

In turn, `N[C@H]1CCN(C(=O)[C@@H](NS(=O)(=O)c2ccc3cc(OC4CCCC4)ccc3c2)C(F)(F)c2ccc(-c3ccc(Cl)cc3)cc2)C[C@@H]1F` [Compound 178-1, N—((R)-3-((3 S,4S)-4-amino-3-fluoropiperidin-1-yl)-1-(4′-chloro-[1,1′-biphenyl]-4-yl)-1,1-difluoro-3-oxopropan-2-yl)-6-(cyclopentyloxy)naphthalene-2-sulfonamide] gave an IC50 of 1 to 10 µM.

The compound `N[C@H]1CCN(C(=O)[C@H](NS(=O)(=O)c2ccc3cc(OC4CCCC4)ccc3c2)C(F)(F)c2ccc(-c3ccc(Cl)cc3)cc2)C[C@@H]1F` [Compound 178-2, N—((S)-3-((3 S,4S)-4-amino-3-fluoropiperidin-1-yl)-1-(4′-chloro-[1,1′-biphenyl]-4-yl)-1,1-difluoro-3-oxopropan-2-yl)-6-(cyclopentyloxy) naphthalene-2-sulfonamide] came in with an IC50 of 1 to 10 µM.

`N[C@@H]1CCN(C(=O)[C@H](NS(=O)(=O)c2ccc3cc(OC4CCCC4)ccc3c2)C(F)(F)c2ccc(-c3ccc(Cl)cc3)cc2)C[C@H]1F` [Compound 178-3, N—((S)-3-((3R,4R)-4-amino-3-fluoropiperidin-1-yl)-1-(4′-chloro-[1,1′-biphenyl]-4-yl)-1,1-difluoro-3-oxopropan-2-yl)-6-(cyclopentyloxy)naphthalene-2-sulfonamide] returned an IC50 of 30 to 100 µM.

The compound `O=C([C@@H](NS(=O)(=O)c1ccc(OCC2CCCCC2)cc1)C(F)(F)c1ccc(-c2ccc(Cl)cc2)cc1)N1C[C@H]2CNC[C@H]2C1` [Compound 179-1, N—((R)-1-(4′-chloro-[1,1′-biphenyl]-4-yl)-1,1-difluoro-3-((3aR,6aS)-hexahydropyrrolo[3,4-c]pyrrol-2(1H)-yl)-3-oxopropan-2-yl)-4-(cyclohexylmethoxy) benzenesulfonamide trifluoroacetate] gave an IC50 of 1 to 10 µM.

As for `O=C([C@H](NS(=O)(=O)c1ccc(OCC2CCCCC2)cc1)C(F)(F)c1ccc(-c2ccc(Cl)cc2)cc1)N1C[C@H]2CNC[C@H]2C1` [Compound 179-2, N—((S)-1-(4′-chloro-[1,1′-biphenyl]-4-yl)-1,1-difluoro-3-((3aR,6aS)-hexahydropyrrolo[3,4-c]pyrrol-2(1H)-yl)-3-oxopropan-2-yl)-4-(cyclohexylmethoxy)benzenesulfonamide trifluoroacetate], the IC50 lay in the range of 30 to 100 µM.
